Assay results published in PubChem BioAssay (NCI).
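GI50 is the concentration that inhibits growth by half. The concentration for full growth arrest is given as TGI.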

Assays:
Assay in all cases: NCI-60 cell line screen, 384-well format; in the data active = GI50 below about 0.43 µM; inactive = the rest
KM12 colon = tested on: KM12 colon
OVCAR-4 ovarian = tested on: OVCAR-4 ovarian
MDA-MB-468 breast = tested on: MDA-MB-468 breast
SR leukemia = tested on: SR leukemia
MOLT-4 leukemia = tested on: MOLT-4 leukemia
SNB-75 CNS = tested on: SNB-75 CNS
HCT-15 colon = tested on: HCT-15 colon
IGROV1 ovarian = tested on: IGROV1 ovarian
SN12C renal = tested on: SN12C renal
DU-145 prostate = tested on: DU-145 prostate
U251 glioblastoma = tested on: U251 glioblastoma
UACC-257 melanoma = tested on: UACC-257 melanoma
SF-295 CNS = tested on: SF-295 CNS

Cc1ncsc1-c1ccc(CNC(=O)[C@@H]2C[C@@H](O)CN2C(=O)[C@@H](NC(=O)C2(C#N)CC2)C(C)(C)C)cc1
> 100 µM: TGI (KM12 colon) | TGI (OVCAR-4 ovarian) | TGI (MDA-MB-468 breast) | TGI (SR leukemia) | TGI (MOLT-4 leukemia) | TGI (SNB-75 CNS) | TGI (HCT-15 colon) | TGI (IGROV1 ovarian) | TGI (SN12C renal) | TGI (DU-145 prostate) | TGI (U251 glioblastoma) | TGI (UACC-257 melanoma) | TGI (SF-295 CNS)
inactive: GI50 (KM12 colon) > 100 µM | GI50 (OVCAR-4 ovarian) > 100 µM | GI50 (MDA-MB-468 breast) > 100 µM | GI50 (SR leukemia) > 100 µM | GI50 (MOLT-4 leukemia) > 100 µM | GI50 (SNB-75 CNS) > 94.8 µM | GI50 (HCT-15 colon) > 100 µM | GI50 (IGROV1 ovarian) > 100 µM | GI50 (SN12C renal) > 100 µM | GI50 (DU-145 prostate) > 100 µM | GI50 (U251 glioblastoma) > 100 µM | GI50 (UACC-257 melanoma) > 100 µM | GI50 (SF-295 CNS) > 100 µM

O=C(NCc1ccncc1)C12CC3CC(C1)CC(c1ccc(Cl)cc1)(C3)C2
26.5 µM: TGI (OVCAR-4 ovarian)
14.7 µM: TGI (MOLT-4 leukemia)
26.7 µM: TGI (UACC-257 melanoma)
15.1 µM: TGI (MDA-MB-468 breast)
9.66 µM: TGI (SR leukemia)
27.5 µM: TGI (SN12C renal)
28.8 µM: TGI (U251 glioblastoma)
28.3 µM: TGI (SNB-75 CNS)
27.2 µM: TGI (SF-295 CNS)
24.6 µM: TGI (IGROV1 ovarian)
24.9 µM: TGI (HCT-15 colon)
inactive: GI50 (KM12 colon) 13.1 µM | GI50 (OVCAR-4 ovarian) 13.6 µM | GI50 (MDA-MB-468 breast) 5.39 µM | GI50 (SR leukemia) 5.05 µM | GI50 (MOLT-4 leukemia) 4.37 µM | GI50 (SNB-75 CNS) 15 µM | GI50 (HCT-15 colon) 11.7 µM | GI50 (IGROV1 ovarian) 12.1 µM | GI50 (SN12C renal) 14.4 µM | GI50 (DU-145 prostate) 14.5 µM | GI50 (U251 glioblastoma) 15.3 µM | GI50 (UACC-257 melanoma) 13.7 µM | GI50 (SF-295 CNS) 14.1 µM
25.9 µM: TGI (KM12 colon)
27.8 µM: TGI (DU-145 prostate)
